Like-named read-outs stand apart in the source and are kept apart here.
Columns and labels:
[1] = rat, in vivo; cited from earlier work
Description: This is in line with nonclinical PK studies in rats and dogs, in which emodepside volume ...

[2] = Plasma pharmacokinetics of emodepside, single ascending dose (SAD) and food effect study; format: in vivo, human; conditions: for AUC 0–24 /D / C max /D: dose-normalised; for t ½ 0–24 (dominant half-life): terminal slope of log concentration–time (0–24 h) curve; for half-life: ln2/λz, read-out: Terminal t ½ (converted); for Tmax: median (range)
Experimental: Emodepside and placebo were supplied as a LSF and a standard immediate‐release (IR) tablet. The LSF was a 0.1% (w/v) solution containing 1 mg emodepside/mL. Conventional IR tablets containing emodepside in crystalline form were supplied in 2 dosage strengths, 5 and 20 mg, for the single ascending dose (SAD) study.
To preclude any dietary effects on the PK of emodepside, subjects in the fasting cohorts fasted for 9 hours before receiving the IP. Subjects in the fed cohort fasted for 10 hours prior to dosing and received a standard high‐calorie, high‐fat breakfast 30 minutes prior to dosing.
Blood samples (5 mL) were collected by venepuncture or via a cannula into EDTA tubes and immediately placed on ice. Samples were centrifuged at 1500 g for 10 minutes at 4°C. The plasma was aliquoted into 2 polypropylene tubes, which were stored at −20°C. Blood samples for PK analysis were taken at the following time points: • SAD: predose and 0.5, 1, 1.5, 2, 2.5, 3, 4, 5, 6, 8, 12, 24, 36, 48, 72, 96, 120, 144 and 168 hours, and 21 days postdose (cohort 1–9) or predose and 0.5, 1, 3, 6, 8, 12, 24, 36, 48, 72, 96, 120, 144 and 168 hours, and 10, 14, 18 and 21 days postdose (cohort 10). • Multiple ascending dose (MAD), as below: • on Day 1: predose and at 0.25, 0.5, 1, 1.5, 2, 2.5, 3, 4, 6, 8, 12 and 15 hours postdose • on Days 2–9: before the morning dose • on Day 10: before and at 0.25, 0.5, 1, 1.5, 2, 2.5, 3, 4, 6, 8, 12 and 15 hours • on Days 11, 12, 13, 14, 15, 18, 21, 24 and 30.
Emodepside plasma concentrations were determined by a validated high performance liquid chromatography–tandem mass spectrometry assay, using a Alltima C18 5 μm 150 mm x 2.1 mm column and an Applied Biosystems API4000 Turbo Ion Spray detector using positive ion mode. Analyst version 1.3.2 or 1.6.3 software, obtained from AB Sciex UK Ltd, Warrington, UK was used for chromatogram data analysis and quantitative calculations. Deuterated emodepside‐D16 was used as the internal standard. The lower limit of quantitation for emodepside in plasma was 1 ng/mL. Values below this limit were not used to calculate the PK parameters, except values that were below the limit of quantification before Cmax, which were set to zero.
The highest observed plasma concentration (Cmax) was determined directly from concentration–time data, as was the time to reach maximum plasma concentration (tmax). The area under the plasma concentration–time curve from time zero (predose) to the time of last quantifiable concentration (AUC0‐last) was calculated using the linear‐log trapezoidal rule. Elimination half‐life (t1/2) was calculated by the equation ln2/λz.
Statistical analyses were performed using SAS version 9.3 (Cary, NC, USA). Demographic data and baseline characteristics were listed and summarised. […] PK parameters were derived from plasma concentration vs. time data using a noncompartmental analysis in Phoenix WinNonlin version 7 (Certara Inc., Princeton, NJ, USA). Plasma concentration vs. time data and PK parameters were listed, and summarised by treatment, using descriptive statistics. Mean concentrations were calculated only if at least ⅔ of the individual concentrations were above the lower limit of quantification. […] Planned sampling times were used to summarise plasma‐concentration data; actual sampling times were used in the derivation of PK parameters.

[3] = SAD, single oral 1 mg LSF fasting, mean
[4] = SAD, single oral 2.5 mg LSF fasting, mean
[5] = SAD, single oral 5 mg IRT fasting, mean
[6] = SAD, single oral 5 mg LSF fasting, mean
[7] = SAD, single oral 10 mg LSF Fed, mean
[8] = SAD, single oral 10 mg LSF fasting, mean
[9] = SAD, single oral 20 mg IRT fasting, mean
[10] = SAD, single oral 20 mg LSF fasting, mean
[11] = SAD, single oral 40 mg LSF fasting, mean
[12] = human, in vivo, po, 1 mg, SAD, single oral 1 mg LSF fasting, plasma, HPLC-MS/MS, mean
[13] = human, in vivo, po, 2.5 mg, SAD, single oral 2.5 mg LSF fasting, plasma, HPLC-MS/MS, mean
[14] = human, in vivo, po, 5 mg, SAD, single oral 5 mg IRT fasting, plasma, HPLC-MS/MS, mean
[15] = human, in vivo, po, 5 mg, SAD, single oral 5 mg LSF fasting, plasma, HPLC-MS/MS, mean
[16] = human, in vivo, po, 10 mg, SAD, single oral 10 mg LSF Fed, plasma, HPLC-MS/MS, mean
[17] = human, in vivo, po, 10 mg, SAD, single oral 10 mg LSF fasting, plasma, HPLC-MS/MS, mean
[18] = human, in vivo, po, 20 mg, SAD, single oral 20 mg IRT fasting, plasma, HPLC-MS/MS, mean
[19] = human, in vivo, po, 20 mg, SAD, single oral 20 mg LSF fasting, plasma, HPLC-MS/MS, mean
[20] = human, in vivo, po, 40 mg, SAD, single oral 40 mg LSF fasting, plasma, HPLC-MS/MS, mean

## CC(C)C[C@H]1C(=O)O[C@H](Cc2ccc(N3CCOCC3)cc2)C(=O)N(C)[C@@H](CC(C)C)C(=O)O[C@H](C)C(=O)N(C)[C@@H](CC(C)C)C(=O)O[C@H](Cc2ccc(N3CCOCC3)cc2)C(=O)N(C)[C@@H](CC(C)C)C(=O)O[C@H](C)C(=O)N1C [emodepside]
[1]
  Radioactivity levels in tissues vs blood, radio-labelled emodepside: higher in most tissues than in the blood
[2]; SAD, all dose levels and both formulations
  Plasma emodepside concentrations lower in the first 24 hours postdose, based on geometric mean Cmax: approximately 90%
[2]; SAD, single 10-mg dose of the LSF
  AUC0-last in fed relative to fasting conditions: not statistically different
[2]; [3]
  AUC 0–24 /D: 100 [h.ng/mL]/mg
  C max /D: 18.6 [ng/mL]/mg
  t ½ 0–24 (dominant half-life): 8.45 h
[2]; [4]
  AUC 0–24 /D: 100 [h.ng/mL]/mg
  C max /D: 15.0 [ng/mL]/mg
  t ½ 0–24 (dominant half-life): 10.6 h
[2]; [5]
  AUC 0–24 /D: 36.5 [h.ng/mL]/mg
  C max /D: 5.15 [ng/mL]/mg
  t ½ 0–24 (dominant half-life): 10.8 h
[2]; SAD, single oral 5 mg IRT fasting, plasma, HPLC-MS/MS, mean
  AUC 0–24: 183 ng·h/mL
[2]; [6]
  AUC 0–24 /D: 104 [h.ng/mL]/mg
  C max /D: 18.4 [ng/mL]/mg
  t ½ 0–24 (dominant half-life): 11.6 h
[2]; SAD, single oral 5 mg LSF fasting, plasma, HPLC-MS/MS, mean
  AUC 0–24: 522 ng·h/mL
[2]; [7]
  AUC 0–24 /D: 67.3 [h.ng/mL]/mg
  C max /D: 7.19 [ng/mL]/mg
  t ½ 0–24 (dominant half-life): 11.1 h
[2]; [8]
  AUC 0–24 /D: 99.6 [h.ng/mL]/mg
  C max /D: 17.2 [ng/mL]/mg
  t ½ 0–24 (dominant half-life): 10.9 h
[2]; [9]
  AUC 0–24 /D: 11.2 [h.ng/mL]/mg
  C max /D: 1.51 [ng/mL]/mg
  t ½ 0–24 (dominant half-life): 11.3 h
[2]; SAD, single oral 20 mg IRT fasting, plasma, HPLC-MS/MS, mean
  AUC 0–24: 223 ng·h/mL
[2]; [10]
  AUC 0–24 /D: 95.3 [h.ng/mL]/mg
  C max /D: 15.3 [ng/mL]/mg
  t ½ 0–24 (dominant half-life): 10.5 h
[2]; SAD, single oral 20 mg LSF fasting, plasma, HPLC-MS/MS, mean
  AUC 0–24: 1910 ng·h/mL
[2]; [11]
  AUC 0–24 /D: 103 [h.ng/mL]/mg
  C max /D: 14.9 [ng/mL]/mg
[2]; SAD, single oral 40 mg LSF fasting, plasma, HPLC-MS/MS, mean
  AUC last: 16 400 h.ng/mL
[2]; healthy subjects, oral, across the 2 studies
  Half-life during the first 24 hours after dosing (distribution phase): around 11 hours
[2]; [12]
  AUC 0–24 h: 100 ng·h/mL
  AUC(0-t): 182 ng·h/mL
  Cmax: 18.6 ng/mL
[2]; human, in vivo, po, 1 mg, SAD, single oral 1 mg LSF fasting, plasma, mean
  half-life: 42.7 h
[2]; human, in vivo, po, 1 mg, SAD, single oral 1 mg LSF fasting, plasma
  Tmax: 1 h
[2]; [13]
  AUC 0–24 h: 250 ng·h/mL
  AUC(0-t): 845 ng·h/mL
  Cmax: 37.6 ng/mL
[2]; human, in vivo, po, 2.5 mg, SAD, single oral 2.5 mg LSF fasting, plasma, mean
  half-life: 449 h
[2]; human, in vivo, po, 2.5 mg, SAD, single oral 2.5 mg LSF fasting, plasma
  Tmax: 1 h
[2]; human, in vivo, po, 5 mg
  F rel: 35%
[2]; [14]
  AUC(0-t): 501 ng·h/mL
  Cmax: 25.7 ng/mL
[2]; human, in vivo, po, 5 mg, SAD, single oral 5 mg IRT fasting, plasma, mean
  half-life: 267 h
[2]; human, in vivo, po, 5 mg, SAD, single oral 5 mg IRT fasting, plasma
  Tmax: 2 h
[2]; [15]
  AUC(0-t): 1700 ng·h/mL
  Cmax: 92.1 ng/mL
[2]; human, in vivo, po, 5 mg, SAD, single oral 5 mg LSF fasting, plasma, mean
  half-life: 415 h
[2]; human, in vivo, po, 5 mg, SAD, single oral 5 mg LSF fasting, plasma
  Tmax: 1 h
[2]; [16]
  AUC 0–24 h: 673 ng·h/mL
  AUC(0-t): 3390 ng·h/mL
  Cmax: 71.9 ng/mL
[2]; human, in vivo, po, 10 mg, SAD, single oral 10 mg LSF Fed, plasma, mean
  half-life: 531 h
[2]; human, in vivo, po, 10 mg, SAD, single oral 10 mg LSF Fed, plasma
  Tmax: 2.5 h
[2]; [17]
  AUC 0–24 h: 996 ng·h/mL
  AUC(0-t): 3070 ng·h/mL
  Cmax: 172 ng/mL
[2]; human, in vivo, po, 10 mg, SAD, single oral 10 mg LSF fasting, plasma, mean
  half-life: 365 h
[2]; human, in vivo, po, 10 mg, SAD, single oral 10 mg LSF fasting, plasma
  Tmax: 1 h
[2]; [18]
  AUC(0-t): 667 ng·h/mL
  Cmax: 30.2 ng/mL
[2]; human, in vivo, po, 20 mg, SAD, single oral 20 mg IRT fasting, plasma, mean
  half-life: 348 h
[2]; human, in vivo, po, 20 mg, SAD, single oral 20 mg IRT fasting, plasma
  Tmax: 2 h
[2]; [19]
  AUC(0-t): 7480 ng·h/mL
  Cmax: 306 ng/mL
[2]; human, in vivo, po, 20 mg, SAD, single oral 20 mg LSF fasting, plasma, mean
  half-life: 590 h
[2]; human, in vivo, po, 20 mg, SAD, single oral 20 mg LSF fasting, plasma
  Tmax: 1.5 h
[2]; [20]
  AUC 0–24 h: 4110 ng·h/mL
  Cmax: 595 ng/mL
[2]; human, in vivo, po, 40 mg, SAD, single oral 40 mg LSF fasting, plasma, mean
  half-life: 392 h
[2]; human, in vivo, po, 40 mg, SAD, single oral 40 mg LSF fasting, plasma
  Tmax: 1.05 h
[2]; in vivo
  Frel, relative bioavailability IR tablet vs. LSF: 11.71%
